Measured values taken from the NIST ThermoML archive (doi:10.1021/je900703f).
± gives the expanded uncertainty stated by the source.

Details: Liquid

FC(F)=C(F)C(F)(F)F [hexafluoropropene]
vapor or sublimation pressure (263.17 K): 224.5 ± 1.7 kPa | vapor or sublimation pressure (273.16 K): 324.4 ± 2.2 kPa | vapor or sublimation pressure (293.12 K): 641 ± 4.1 kPa | vapor or sublimation pressure (313.11 K): 1099.4 ± 7 kPa | vapor or sublimation pressure (333.11 K): 1788.2 ± 11 kPa | vapor or sublimation pressure (353.14 K): 2778.2 ± 17 kPa
